This passage reports glass transition temperature results from the PolyMetriX glass transition set.

The molecule `*C(=O)OCCCCCCOC(=O)c1ccc(N2C(=O)c3ccc(*)cc3C2=O)cc1` (repeat unit) displayed a glass transition temperature of 80.50 °C.

Take `*C(=O)OCCCCCOC(=O)c1ccc(N2C(=O)c3ccc(*)cc3C2=O)cc1` (repeat unit): the glass transition temperature came out at 90.00 °C.

`*C(=O)OCCN(CCOC(=O)c1ccc2c(c1)C(=O)N(c1cccc(N3C(=O)c4ccc(*)cc4C3=O)c1)C2=O)c1ccc(/N=N/c2ccc(F)cc2)cc1` (repeat unit) yielded a glass transition temperature of 168.00 °C.

As to `*C(=O)OCCOC(=O)c1ccc(*)o1` (repeat unit), the glass transition temperature is 89.0 °C.

`*C(=O)OCCOC(=O)c1ccc(N2C(=O)c3ccc(*)cc3C2=O)cc1` (repeat unit): the glass transition temperature was determined as 280.00 °C.

In the case of `*C(=O)OCCOCCOC(=O)c1ccc(N2C(=O)c3ccc(*)cc3C2=O)cc1` (repeat unit), the glass transition temperature was found to be 101.00 °C.

With `*C(=O)OCCOCCOCCOC(=O)c1ccc(N2C(=O)c3ccc(*)cc3C2=O)cc1` (repeat unit), the glass transition temperature amounted to 63.00 °C.

In the case of `*CC#CC#CCOc1ccc(C(=O)OCCN(CCOC(=O)c2ccc(O*)cc2)c2ccc([N+](=O)[O-])cc2)cc1` (repeat unit), the glass transition temperature came to 100.00 °C.

Turning to `*CCCCCCOC(=O)C(C(=O)OCCCCCCOc1ccc(-n2on2-c2ccc(O*)cc2)cc1)c1ccccc1` (repeat unit), the glass transition temperature was 23.00 °C.

Regarding `*CCCCCCOC(=O)C(CCCCCOc1ccc(/N=N/c2ccncc2)cc1)C(=O)OCCCCCCOc1ccc(-c2ccc(O*)cc2)cc1` (repeat unit), the glass transition temperature amounted to 53.60 °C.

As to `*CCCCCCOC(=O)C(CCCCCP(=O)(O)O)C(=O)OCCCCCCOc1ccc(-n2on2-c2ccc(O*)cc2)cc1` (repeat unit), the glass transition temperature stood at 17.00 °C.

`*CCCCCCOC(=O)O*` (repeat unit) registered a glass transition temperature of -42.00 °C.

In turn, `*CCCCCCOC(=O)OCCCCOC(=O)OCCCCCCOc1ccc(C(=O)c2ccc(O*)cc2)cc1` (repeat unit) showed a glass transition temperature of 2.10 °C.

In turn, `*CCCCCCOC(=O)OCCCOC(=O)OCCCCCCOc1ccc(C(=O)c2ccc(O*)cc2)cc1` (repeat unit) gave a glass transition temperature of 16.00 °C.

Molecule `*CCCCCCOC(=O)OCCOC(=O)OCCCCCCOc1ccc(C(=O)c2ccc(O*)cc2)cc1` (repeat unit) displayed a glass transition temperature of 15.00 °C.

On to `*CCCCCCOC(=O)OCCOC(=O)OCCCCCCOc1ccc(Oc2ccc(O*)cc2)cc1` (repeat unit), for which the glass transition temperature was -4.00 °C.

Molecule `*CCCCCCOC(=O)c1ccc2cc(C(=O)O*)ccc2c1` (repeat unit) yielded a glass transition temperature of 64.00 °C.

As for `*CCCCCCOc1ccc(-c2ccc(O*)c3ccccc23)c2ccccc12` (repeat unit), the glass transition temperature was found to be 109.00 °C.

Regarding `*CCCCCCOc1ccc(/C=C/c2ccc(O*)c3ccccc23)cc1` (repeat unit), the glass transition temperature is 78.00 °C.

`*CCCCCCOc1ccc(CCc2ccc(O*)cc2C)cc1` (repeat unit): the glass transition temperature turned out to be 17.90 °C.

For the molecule `*CCCCOC(=O)c1ccc(N/C=N/c2ccc(C(=O)O*)cc2)cc1` (repeat unit), the glass transition temperature is 91.00 °C.

As to `*CCCCOC(=O)c1ccc2cc(C(=O)O*)ccc2c1` (repeat unit), the glass transition temperature was found to be 66.00 °C.

The molecule `*CCCCOc1ccc(C(=O)OCCOC(=O)c2ccc(O*)cc2)cc1` (repeat unit) displayed a glass transition temperature of 53.00 °C.

As for `*CCCOC(=O)C(C)O*` (repeat unit), the glass transition temperature was -33.00 °C.

Regarding `*CCCOc1ccc(OCCCc2nnc(-c3ccc(-c4nnc(*)o4)cc3)o2)c(C)c1` (repeat unit), the glass transition temperature stood at 112.00 °C.

Molecule `*CCN(CCOC(=O)OCc1ccc(COC(=O)O*)cc1)c1ccc(/N=N/c2ccc([N+](=O)[O-])cc2)cc1` (repeat unit) displayed a glass transition temperature of 138.80 °C.

The molecule `*CCN(CCOC(=O)c1cc(OCCC2CCN(c3ccc(S(=O)(=O)C(F)(F)C(F)(F)C(F)(F)C(F)(F)C(F)(F)C(F)(F)C(F)(F)C(F)(F)F)cc3)CC2)cc(C(=O)O*)c1)c1ccc(S(=O)(=O)C(F)(F)C(F)(F)C(F)(F)C(F)(F)C(F)(F)C(F)(F)C(F)(F)C(F)(F)F)cc1` (repeat unit) gave a glass transition temperature of 86.00 °C.

`*CCN(CCOC(=O)c1ccc(C(=O)O*)cc1)c1ccc(-c2nc3ccc([N+](=O)[O-])cc3o2)cc1` (repeat unit) registered a glass transition temperature of 208.00 °C.

`*CCOCCOC(=O)O*` (repeat unit) registered a glass transition temperature of -27.00 °C.

Consider `*CCOCCOC(=O)c1ccccc1-c1ccccc1C(=O)O*` (repeat unit), for which the glass transition temperature was determined as 17.00 °C.

In the case of `*CCOCCOCCOC(=O)c1ccc(-c2ccc(-c3ccc(C(=O)O*)cc3)cc2)cc1` (repeat unit), the glass transition temperature was 50.00 °C.

`*CCOCCOCCOC(=O)c1ccc(-c2ccc(C(=O)O*)cc2)cc1` (repeat unit) returned a glass transition temperature of 20.00 °C.

`*OC(=O)OCCOCCOCCOC(=O)OC1COC2C(*)COC12` (repeat unit): the glass transition temperature came out at 17.00 °C.

Regarding `*OCCOC(=O)CCCC(=O)OCCOc1nc(-c2ccc(OCCCC)cc2)nc(*)c1-c1ccc(OC)cc1` (repeat unit), the glass transition temperature turned out to be 46.00 °C.

The molecule `*OCCOC(=O)CCCCC(=O)OCCOc1nc(-c2ccc(OCCCC)cc2)nc(*)c1-c1ccc(OC)cc1` (repeat unit) showed a glass transition temperature of 34.00 °C.

`*OCCOC(=O)c1ccc(C(=O)OCCOc2nc(-c3ccc(OCCCC)cc3)nc(*)c2-c2ccc(OC)cc2)cc1` (repeat unit): the glass transition temperature is 94.00 °C.

The molecule `*OCCOC(=O)c1cccc(C(=O)OCCOc2nc(-c3ccc(OCCCC)cc3)nc(*)c2-c2ccc(OC)cc2)c1` (repeat unit) gave a glass transition temperature of 92.00 °C.

With `*Oc1ccc(C(=O)OCCCCCCOC(=O)c2ccc(*)cc2)cc1` (repeat unit), the glass transition temperature came out at 15.00 °C.

The molecule `*Oc1cccc(N(c2ccccc2)c2ccc(-c3ccc(N(c4ccc(/N=N/c5ccc([N+](=O)[O-])cc5)cc4)c4cccc(OC(=O)OCCOCCOC(*)=O)c4)cc3)cc2)c1` (repeat unit) had a glass transition temperature of 111.00 °C.

`*Oc1cccc(N(c2ccccc2)c2ccc(-c3ccc(N(c4ccccc4)c4cccc(OC(=O)OCCOCCOC(*)=O)c4)cc3)cc2)c1` (repeat unit) had a glass transition temperature of 113.00 °C.

With `*c1ccc(Oc2ccc(C(=O)c3ccc(Cc4ccc(C(=O)c5ccc(Oc6ccc(-c7nc(-c8ccccc8)[nH]c7*)cc6)cc5)cc4)cc3)cc2)cc1` (repeat unit), the glass transition temperature stood at 231.00 °C.

Molecule `*c1ccc(Oc2ccc(C(=O)c3ccc(Oc4ccc(-c5nc(-c6ccc(-c7nc(*)c(-c8ccccc8)[nH]7)cc6)[nH]c5-c5ccccc5)cc4)cc3)cc2)cc1` (repeat unit) gave a glass transition temperature of 276.00 °C.

`*c1ccc(Oc2ccc(C(=O)c3ccc(Oc4ccc(-c5nnc(*)c6c(-c7ccc(F)cc7)c(-c7ccc(F)cc7)c(-c7ccc(F)cc7)c(-c7ccc(F)cc7)c56)cc4)cc3)cc2)cc1` (repeat unit): the glass transition temperature turned out to be 313.00 °C.

Consider `*c1ccc(Oc2ccc(C(=O)c3ccc(Oc4ccc(C(=O)c5ccc(Oc6ccc(-c7nc(-c8ccccc8)[nH]c7*)cc6)cc5)cc4)cc3)cc2)cc1` (repeat unit), for which the glass transition temperature was 230.00 °C.
